Measured values as given in US10836769B2, “Substituted pyrrolizine compounds and uses thereof” (Gilead Sciences, Inc., priority 2018, dated 2020).
≈ marks a conversion by molar mass, not a printed value. Like-named read-outs stand apart in the source and are kept apart here.

Legend:
Kinetic Solubility = assay type: physicochemical; details: 0.2 to 100 μM, BD Gentest Solubility Scanner
Experimental: The 10 mM DMSO stock solution of the test compound is serially diluted into a 96-well “DMSO stock dilution plate”. Then Pipette 2 μL from the DMSO stock dilution plate into the “Sample plate” and dilute with 198 µL of the assay media to generate the final concentrations of the test compound ranging from 0.2 to 100 μM. The “Sample plate” is run on a BD Gentest Solubility Scanner.

HBV = HBV DNA Quantification Assay; assay type: cell-based
Experimental: A HepG2 cell line overexpressing the HBV virus attachment receptor sodium-taurocholate cotransporting polypeptide (NTCP) was grown to confluency in DMEM growth medium, Dulbecco's Modified Eagle Medium without sodium pyruvate (Life Technologies, Rockville, Md.) supplemented with 10% FBS (Thermo Scientific, Waltham, Md.), 1% penicillin/streptomycin (Life Technologies, Rockville, Md.) and 2 mM L-glutamine (Life Technologies, Rockville, Md.) in T175 flasks. Cells were infected with HBV AD38 viral particles (Texcell, Frederick, USA) at 4000 genome equivalents per cell. After allowing viral infection to take place for 4 days, the infected cells were harvested from the flasks by trypsinization, washed twice with OptiMEM (Life Technologies, Rockville, Md.) and re-suspended in DMEM containing 2% FBS and 1% DMSO at a density of 0.25E6 cells/ml. Infected cells were seeded on 384 well collagen coated plates (Greiner, Austria) at a density of 20,000 cells/well containing serially diluted compounds of the present disclosure or DMSO (0.5%) in a final volume of 80 μl. The assay plates were incubated for a period of 5 days and the antiviral activity of the test compounds were assayed by detecting the presence of HBV DNA in the culture supernatant using the QuantiGene™ 2.0 nucleic acid quantification kit (Affymetrix, Santa Clara, Calif.).
The culture supernatant was harvested and treated with lysis buffer containing Proteinase K (Affymetrix, Santa Clara, Calif.). The supernatant was incubated with HBV viral DNA specific probes (Affymetrix, Santa Clara, Calif.) for 30 minutes at 55° C. This was followed by addition of 0.2M NaOH for 30 minutes at room temperature to denature the DNA, followed by addition of Neutralization buffer (Affymetrix, Santa Clara, Calif.). The resulting lysed and neutralized supernatant was then added to QuantiGene™ 2.0 384 well plates coated with capture oligonucleotides and incubated overnight at 55° C. The HBV specific probe set consists of Capture Extender oligonucleotides (CE's) and blocking probes. Following the overnight incubation, the wells were incubated for one hour sequentially with a Pre-Amplifier, Amplifier and Labeled probes conjugated to alkaline phosphatase with a wash step between incubations. After the final wash step, the alkaline phosphatase substrate (Luminol APS5) was added and the resulting luminescence signal was read in an EnVision Multilabel Plate Reader (PerkinElmer, Santa Clara, Calif.). The EC50 values were calculated from the fit of the dose-response curves to a four-parameter equation. All EC50 values represent geometric mean values of a minimum of four determinations.

[1] = aqueous buffer, kinetic from dmso stock, pH = 7, read-out: Kinetic Solubility at pH = 7
[2] = simulated gastric fluid, kinetic from dmso stock, pH = 1, read-out: Kinetic Solubility at pH = 1
[3] = Hepatitis B virus, 120 h, HepG2 cell line overexpressing NTCP infected with HBV AD38 viral particles, HBV DNA in culture supernatant after 5 days, geometric mean of a minimum of four determinations, read-out: EC50

Cc1c(C(=O)Nc2ccc(F)cc2)c2n(c1C(=O)C(=O)NC1(c3cnn(C)n3)CC(F)(F)C1)CCC2 [Example 9, 5-(2-((3,3-difluoro-14(2-methyl-2H-1,2,3-triazol-4-yl)cyclobutyl)amino)-2-oxoacetyl)-N-4(4-fluorophenyl)-6-methyl-2,3-dihydro-1H-pyrrolizine-7-carboxamide]
solubility kinetic (Kinetic Solubility; pH = 1, read-out: Kinetic Solubility at pH = 1): 2.8 µM (≈ 1.4 µg/mL) | solubility kinetic (Kinetic Solubility; pH = 7, read-out: Kinetic Solubility at pH = 7): 2.3 µM (≈ 1.15 µg/mL) | EC50 (HBV; HepG2 cell line overexpressing NTCP infected with HBV AD38 viral particles, HBV DNA in culture supernatant after 5 days, geometric mean of a minimum of four determinations, read-out: EC50): 5.8 nM

C#CC1(NC(=O)C(=O)c2c(C)c(C(=O)Nc3ccc(F)c(F)c3)c3n2CCC3)CC1 [Example 13]
solubility kinetic (Kinetic Solubility; assay media at pH 1 (composition not named), simulated gastric fluid, kinetic from dmso stock, pH = 1, read-out: Kinetic Solubility at pH = 1): 5 µM (≈ 2.06 µg/mL) | solubility kinetic (Kinetic Solubility; assay media at pH 7 (composition not named), aqueous buffer, kinetic from dmso stock, pH = 7, read-out: Kinetic Solubility at pH = 7): 6.4 µM (≈ 2.63 µg/mL) | EC50 (HBV; Hepatitis B virus, HepG2, 120 h): 8.5 nM

CNC(=O)C1(NC(=O)C(=O)c2c(C)c(C(=O)Nc3ccc(F)c(F)c3)c3n2C[C@H]2C[C@@H]32)CC(F)(F)C1 [Example 26, (1aS,6bR)-4-(2-((3,3-difluoro-1-(methylcarbamoyl)cyclobutyl)amino)-2-oxoacetyl)-N-(3,4-difluorophenyl)-5-methyl-1,1a,2,6b-tetrahydrocyclopropa[a]pyrrolizine-6-carboxamide]
solubility kinetic (Kinetic Solubility; [1]): > 100 µM | solubility kinetic (Kinetic Solubility; [2]): > 100 µM | EC50 (HBV; [3]): 20.6 nM

CNC(=O)C1(NC(=O)C(=O)c2c(C)c(C(=O)Nc3ccc(F)c(Cl)c3)c3n2CCC3)CC(F)(F)C1 [Example 35]
solubility kinetic (Kinetic Solubility; [1]): 3.4 µM (≈ 1.74 µg/mL) | solubility kinetic (Kinetic Solubility; [2]): 9.1 µM (≈ 4.65 µg/mL) | EC50 (HBV; [3]): 14.2 nM

Cc1c(C(=O)Nc2ccc(F)c(Cl)c2)c2n(c1C(=O)C(=O)NC1(c3cnn[nH]3)CC(F)(F)C1)CCC2 [Example 16, N-(3-chloro-4-fluorophenyl)-5-(2-((3,3-difluoro-1-(1H-1,2,3-triazol-4-yl)cyclobutyl)amino)-2-oxoacetyl)-6-methyl-2,3-dihydro-1H-pyrrolizine-7-carboxamide]
solubility kinetic (Kinetic Solubility; [1]): 2.8 µM (≈ 1.46 µg/mL) | solubility kinetic (Kinetic Solubility; [2]): 16.5 µM (≈ 8.59 µg/mL) | EC50 (HBV; [3]): 1.8 nM

Cc1c(C(=O)Nc2ccc(F)cc2)c2n(c1C(=O)C(=O)NC1(c3cnn[nH]3)CC(F)(F)C1)CCC2 [Example 17, 5-(2-((3,3-difluoro-1-(1H-1,2,3-triazol-4-yl)cyclobutyl)amino)-2-oxoacetyl)-N-(4-fluorophenyl)-6-methyl-2,3-dihydro-H-pyrrolizine-7-carboxamide]
solubility kinetic (Kinetic Solubility; [1]): 77.8 µM (≈ 37.8 µg/mL) | solubility kinetic (Kinetic Solubility; [2]): 70.2 µM (≈ 34.1 µg/mL) | EC50 (HBV; [3]): 4.1 nM

Cc1c(C(=O)Nc2cc(F)c(F)c(F)c2)c2n(c1C(=O)C(=O)NC1(c3cn(C)nn3)CC(F)(F)C1)CCC2 [Example 4]
solubility kinetic (Kinetic Solubility; [1]): 39.9 µM (≈ 21.4 µg/mL) | solubility kinetic (Kinetic Solubility; [2]): 43.3 µM (≈ 23.2 µg/mL) | EC50 (HBV; [3]): 7.5 nM

Cc1c(C(=O)Nc2ccc(F)c(F)c2)c2n(c1C(=O)C(=O)NC1(c3cnn[nH]3)CC(F)(F)C1)[C@H]1C[C@H]1C2 [Example 23, (1aS,6aS)-3-(2-((3,3-difluoro-1-(1H-1,2,3-triazol-5-yl)cyclobutyl)amino)-2-oxoacetyl)-N-(3,4-difluorophenyl)-4-methyl-1,1a,6,6a-tetrahydrocyclopropa[a]pyrrolizine-5-carboxamide]
solubility kinetic (Kinetic Solubility; [1]): 49.4 µM (≈ 25.5 µg/mL) | solubility kinetic (Kinetic Solubility; [2]): 62 µM (≈ 32 µg/mL) | EC50 (HBV; [3]): 31.8 nM

Cc1c(C(=O)Nc2cc(F)c(F)c(F)c2)c2n(c1C(=O)C(=O)NC1(c3nncs3)CC(F)(F)C1)CCC2 [Example 1, 5-(2-((3,3-difluoro-1-(1,3,4-thiadiazol-2-yl)cyclobutyl)amino)-2-oxoacetyl)-6-methyl-N-(3,4,5-trifluorophenyl)-2,3-dihydro-1H-pyrrolizine-7-carboxamide]
solubility kinetic (Kinetic Solubility; [1]): 1.7 µM (≈ 0.917 µg/mL) | solubility kinetic (Kinetic Solubility; [2]): < 1 µM | EC50 (HBV; [3]): 2.5 nM

CNC(=O)C1(NC(=O)C(=O)c2c(C)c(C(=O)Nc3ccc(F)c(F)c3)c3n2[C@H]2C[C@H]2C3)CC(F)(F)C1 [Example 24]
solubility kinetic (Kinetic Solubility; [1]): 87.1 µM (≈ 44.1 µg/mL) | solubility kinetic (Kinetic Solubility; [2]): 99.4 µM (≈ 50.3 µg/mL) | EC50 (HBV; [3]): 177 nM

Cc1c(C(=O)Nc2ccc(F)c(C(F)F)c2)c2n(c1C(=O)C(=O)NC1(c3c[nH]nn3)CC1)CCC2 [Example 27, 5-(2-((1-(1H-1,2,3-triazol-4-yl)cyclopropyl)amino)-2-oxoacetyl)-N-(3-(difluoromethyl)-4-fluorophenyl)-6-methyl-2,3-dihydro-1H-pyrrolizine-7-carboxamide]
solubility kinetic (Kinetic Solubility; [1]): 2.7 µM (≈ 1.31 µg/mL) | solubility kinetic (Kinetic Solubility; [2]): 8.4 µM (≈ 4.09 µg/mL) | EC50 (HBV; [3]): 23 nM

Cc1c(C(=O)Nc2ccc(F)c(C(F)F)c2)c2n(c1C(=O)C(=O)NC1(C(N)=O)CC(F)(F)C1)CCC2 [Example 32, 5-(2-((1-carbamoyl-3,3-difluorocyclobutyl)amino)-2-oxoacetyl)-N-(3-(difluoromethyl)-4-fluorophenyl)-6-methyl-2-dihydro-1H-pyrrolizine-7-carboxamide]
solubility kinetic (Kinetic Solubility; [1]): 89.5 µM (≈ 45.9 µg/mL) | solubility kinetic (Kinetic Solubility; [2]): 93.1 µM (≈ 47.7 µg/mL) | EC50 (HBV; [3]): 24.2 nM

Cc1c(C(=O)Nc2ccc(F)c(F)c2)c2n(c1C(=O)C(=O)NC1(CO)CC(F)(F)C1)CCC2 [Example 19, 5-(2-((3,3-difluoro-1-(hydroxymethyl)cyclobutyl)amino)-2-oxoacetyl)-N-(3,4-difluorophenyl)-6-methyl-2,3-dihydro-1H-pyrrolizine-7-carboxamide]
solubility kinetic (Kinetic Solubility; [1]): 62 µM (≈ 29 µg/mL) | solubility kinetic (Kinetic Solubility; [2]): 68.7 µM (≈ 32.1 µg/mL) | EC50 (HBV; [3]): 20.2 nM

Cc1c(C(=O)Nc2ccc(F)c(F)c2)c2n(c1C(=O)C(=O)NC1(c3cn(C)nn3)CC(F)(F)C1)CCC2 [Example 6, 5-(2-((3,3-difluoro-1-(1-methyl-1H-1,2,3-triazol-4-yl)cyclobutyl)amino)-2-oxoacetyl)-N-(3,4-difluorophenyl)-6-methyl-2,3-dihydro-1H-pyrrolizine-7-carboxamide]
solubility kinetic (Kinetic Solubility; [1]): 44.8 µM (≈ 23.2 µg/mL) | solubility kinetic (Kinetic Solubility; [2]): 46.1 µM (≈ 23.9 µg/mL) | EC50 (HBV; [3]): 14 nM

Cc1c(C(=O)Nc2cc(F)c(F)c(F)c2)c2n(c1C(=O)C(=O)NC1(c3nncs3)CC1)CCC2 [Example 29, 5-(2-((1-(1,3,4-thiadiazol-2-yl)cyclopropyl)amino)-2-oxoacetyl)-6-methyl-N-(3,4,5-trifluorophenyl)-2,3-dihydro-1H-pyrrolizine-7-carboxamide]
solubility kinetic (Kinetic Solubility; [1]): 4.5 µM (≈ 2.2 µg/mL) | solubility kinetic (Kinetic Solubility; [2]): 88.7 µM (≈ 43.4 µg/mL) | EC50 (HBV; [3]): 14.3 nM

Cc1c(C(=O)Nc2ccc(F)c(F)c2)c2n(c1C(=O)C(=O)NC1(c3c[nH]nn3)CC1)CCC2 [Example 40, 5-(2-((1-(1H-1,2,3-triazol-4-yl)cyclopropyl)amino)-2-oxoacetyl)-N-(3,4-difluorophenyl)-6-methyl-2,3-dihydro-1H-pyrrolizine-7-carboxamide]
solubility kinetic (Kinetic Solubility; [1]): 2.9 µM (≈ 1.32 µg/mL) | solubility kinetic (Kinetic Solubility; [2]): 4.9 µM (≈ 2.23 µg/mL) | EC50 (HBV; [3]): 14.7 nM

CNC(=O)C1(NC(=O)C(=O)c2c(C)c(C(=O)Nc3ccc(F)c(F)c3)c3n2C[C@@H]2C[C@H]32)CC(F)(F)C1 [Example 22, (1aR,6bS)-4-(2-((3,3-difluoro-1-(methylcarbamoyl)cyclobutyl)amino)-2-oxoacetyl)-N-(3,4-difluorophenyl)-5-methyl-1,1a,2,6b-tetrahydrocyclopropa[a]pyrrolizine-6-carboxamide]
solubility kinetic (Kinetic Solubility; [1]): > 100 µM | solubility kinetic (Kinetic Solubility; [2]): > 100 µM | EC50 (HBV; [3]): 31.5 nM

Cc1c(C(=O)Nc2ccc(F)cc2)c2n(c1C(=O)C(=O)NC1(c3nncs3)CC1)CCC2 [Example 30, 5-(2-((1-(1,3,4-thiadiazol-2-yl)cyclopropyl)amino)-2-oxoacetyl)-N-(4-fluorophenyl)-6-methyl-2,3-dihydro-1H-pyrrolizine-7-carboxamide]
solubility kinetic (Kinetic Solubility; [1]): 13 µM (≈ 5.9 µg/mL) | solubility kinetic (Kinetic Solubility; [2]): > 100 µM | EC50 (HBV; [3]): 30.6 nM
